Assay: LCMS analysis of DOTA-TCO-NHS linker immolation after Tz treatment in PBS (pH 7.4)
Assay type: physicochemical
Details: PBS with tetrazine (Tz-amine) added; 100 μM DOTA linker treated with 10 mM Tz-amine, PBS pH 7.4, LCMS; read-out: kinetics of linker immolation T1/2
Experimental: FIG. 6A contains line plots showing LCMS analysis of DOTA-TCO-NHS with varying ratios of HK-Tz added in PBS (pH 7.4). DOTA-TCO-NHS was synthesized as described in FIG. 3C, Characterized by NMR and then subjected to Tz treatment. Aliquots of 100 μM DOTA linker were treated with 10 mM Tz-amine and analyzed by LCMS after 30 min and 3 hours to determine the percentage of intact linker remaining. Shown are the kinetics of linker immolation (T1/2 12 min).

## CN(CC(=O)NCCCNC(=O)CCOCCOCCOCCOCCC(=O)ON1C(=O)CCC1=O)C(=O)OC1/C=C/C(OC(=O)N(C)CC(=O)NCCCNC(=O)CN2CCN(CC(=O)O)CCN(CC(=O)O)CCN(CC(=O)O)CC2)CCCC1 (stereo not shown) [DOTA-TCO-NHS]
  half-life at 100 μM: 12 min

From patent publication US20250213736A1, “SCISSION-ENHANCED NUCLEAR IMAGING AND TREATMENT” (The General Hospital Corporation, priority 2022, published 2025)
